Laboratory results taken from US20040072180A1, “Dna binding peptide domains and a method for providing domains of this type” (priority 2000, published 2004).

Test system: yeast strain YM 4271 transformed with pHISi3xE2Fwt
Experiment: Growth of pHISi3xE2Fwt-transformed yeast colonies on histidine-free minimal medium agar with increasing 3-aminotriazole
Format: cell-based
Conditions: no histidine
Experimental: 1 μg of pHISi3xE2Fwt was completely linearized with 10 U of XhoI for 1 hour, purified using the QiaQuick PCR Purification Kit (Qiagen/Hilden, Germany) according to the manufacturer's instructions and taken up in 50 μl of water. […] This culture was incubated with shaking at 30° C. until an optical density of 0.4-0.6 at 600 nm was reached. The culture was then removed by centrifugation at 1000× g for 5 minutes, and the cells were taken up in 1.5 ml of 100 mM lithium acetate pH 7.5, 10 mM Tris-HCl pH 7.5, 1 mM EDTA. 100 μl of said cells, 50 μl of the linearized plasmid and 100 μg of heat-denatured salmon sperm DNA were admixed with 600 μl of a PEG/LiAc solution (100 mM lithium acetate pH 7.5, 10 mM Tris-HCl pH 7.5, 1 mM EDTA, 40% (w/v) polyethylene glycol 4000) and incubated with shaking at 30° C. for 30 min. After adding 70 μl of dimethyl sulfoxide, the mixture was incubated at 42° C. for 15 min. The cells were subsequently removed by centrifugation, washed in 1 ml of 10 mM Tris-HCl pH 7.5, 1 mM EDTA and plated out in their entirety on a minimal medium agar plate without addition of histidine, on which 12 colonies had grown after 7 days at 30° C.

Nc1nc[nH]n1 [3-aminotriazole]
3-AT concentration at which growth was completely suppressed (one clone (yeast3xE2Fwt)): 2 mM
3-AT concentration at which growth was suppressed markedly (one clone (yeast3xE2Fwt)): 0.5 mM
3-AT concentration at which growth was inhibited (remaining 10 clones): > 30 mM
3-AT concentration at which clones did not grow any more (this clone and another clone): 3 mM
